# Reference: publication PMC6884575, “Suppression of FOXM1 activities and breast cancer growth in vitro and in vivo by a new class of compounds” (NPJ Breast Cancer, 2019)
# What was measured:
# FOXM1 = molecular target: T1, FOXM1 (Homo sapiens, UniProt Q08050); assay: Intracellular localization of FOXM1 (immunofluorescence, nuclear/cytoplasmic fractionation); type: cell-based; set-up: endogenous in cells; host or cells: MDA-MB-231, MCF7; conditions: 24 h, Western blot of nuclear and cytoplasmic extracts
# T1 sequence (Q08050 1-763): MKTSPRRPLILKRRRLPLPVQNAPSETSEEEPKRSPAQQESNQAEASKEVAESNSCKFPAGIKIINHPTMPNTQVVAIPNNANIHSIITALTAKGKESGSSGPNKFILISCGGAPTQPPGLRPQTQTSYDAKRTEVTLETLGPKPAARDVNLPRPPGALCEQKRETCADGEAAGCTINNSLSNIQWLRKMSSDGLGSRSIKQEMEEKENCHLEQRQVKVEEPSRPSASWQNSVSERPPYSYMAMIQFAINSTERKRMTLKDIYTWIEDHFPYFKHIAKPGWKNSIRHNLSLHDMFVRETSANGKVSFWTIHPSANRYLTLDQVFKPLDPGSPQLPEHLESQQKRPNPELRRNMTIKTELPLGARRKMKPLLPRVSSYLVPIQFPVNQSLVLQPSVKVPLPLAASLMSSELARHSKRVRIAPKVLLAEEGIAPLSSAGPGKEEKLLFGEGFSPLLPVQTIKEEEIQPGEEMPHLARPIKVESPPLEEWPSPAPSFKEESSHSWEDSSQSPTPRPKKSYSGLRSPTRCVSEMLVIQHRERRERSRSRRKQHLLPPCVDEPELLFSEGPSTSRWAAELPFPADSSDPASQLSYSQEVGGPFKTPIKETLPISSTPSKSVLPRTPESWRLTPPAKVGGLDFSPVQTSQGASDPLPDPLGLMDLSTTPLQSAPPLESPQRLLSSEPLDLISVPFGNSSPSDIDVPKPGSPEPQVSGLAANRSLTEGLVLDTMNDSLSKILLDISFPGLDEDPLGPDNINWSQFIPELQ
# Experimental: In some cases, treatments with compound were done in the presence of the proteasome inhibitor MG132 (Calbiochem) as described in the figure legend. […] Band intensities were analyzed with Licor Odyssey 2.1 software. All blots shown together derive from the same experiment and were processed in parallel. Full uncropped images of blots are shown as supplementary figures in the Supplementary Information file. Molecular weight markers were Rainbow markers from GE Healthcare (38–225 kDa) or Precision Plus Dual Color Markers from Biorad (37–250 kDa).
# [1] = tested on: human breast cancer cell lines (DT22, MCF7, T47D, BT474, MDA-MB-453, MDA-MB-468, MDA-MB-231); assay: Cell proliferation (WST-1) in panel of breast cancer cell lines; type: cell-based
# Experimental: (§1) WST-1 assay (Roche, Basel, Switzerland) was used to quantify cell viability as described.[38] Absorbance was measured at 450 nm using a VICTOR X5 PerkinElmer 2030 Multilabel Plate Reader. All assays were performed in triplicate and analyzed using Graph Pad Prism 8.0.
# [2] = tested on: FOXM1 target gene expression in MCF7 cells; assay: FOXM1 target gene expression by qRT-PCR; type: cell-based, human; conditions: MCF7, 24 h, compound at its IC50 for proliferation
# Experimental: Total RNA was isolated using TRIzol (Invitrogen) and reverse transcribed using […] reverse transcriptase (New England BioLabs). Real-time PCR was performed using SYBRgreen PCR Master Mix (Quantabio) as described.[15] Relative mRNA levels of genes were normalized to the housekeeping gene 36B4, and fold-change calculated relative to the vehicle treated samples. Results are the average ± SD from at least two independent experiments carried out in triplicate. Primer sequences for the genes studied were obtained from the Harvard Primer Bank. Sequences are available on their website.
# [3] = Pharmacokinetics in mice after single s.c. or oral dose; type: in vivo, female CD1 mice; conditions: for AUC / Cmax / half-life: female, CD1, mouse, 40 mg/kg, single dose, plasma
# Experimental: The pharmacokinetics of compounds were monitored after single dose administration into female CD1 mice (7–9 weeks of age) via s.c. injection or oral gavage, as described.[39] For s.c. injection, each compound was dissolved in DMSO and then mixed with corn oil for a total injection volume of 100 μL (10% DSMO + 90% corn oil) per mouse. For oral gavage, compounds were administered in a 200 µL formulation of 9/0.5/0.5/90 parts of PEG400/Tween80/Povidone/0.5% Carboxymethylcellulose in DI water. […] Compounds were quantified by LC-MS/MS at the University of Illinois Metabolomics Core Facility. The data were fitted to a non-compartment model.
# MCF10A breast cell line = assay: Cell proliferation in non-tumorigenic MCF10A cells; type: cell-based, human; conditions: low level of FOXM1
# Experimental: as §1
# [4] = tested on: DT22 breast tumor xenografts; assay: DT22 human breast tumor xenograft growth in NSG mice; type: in vivo
# Experimental: For examination of the effects of compounds on breast tumor growth suppression, intact female NOD/SCID-gamma (NSG) mice were used as detailed previously.[39] DT-22 breast cancer cells (1 × 10^6 cells/mouse) were injected s.c. into the right axial mammary gland. Mice received s.c. injection or oral gavage daily or every second or third day as indicated, with vehicle or treatment compound, and tumor volume (length × width^2/2) was monitored over time.
compound,measurement,setting,value
Clc1ccc(C(=C2C3CC4CC(C3)CC2C4)c2ccc(OCCCCCCN3CCCC3)cc2)cc1 [NB-55],intracellular localization of FOXM1,FOXM1,does not change the intracellular localization of FOXM1
same,IC50,"[1]; Homo sapiens, breast cancer cell lines, read-out: IC50 for inhibition of proliferation",2 to 10 µM
same,reduced potency in suppression of cell proliferation,[1]; dose-response studies in cells in culture,5 fold
same,"expression of ATF3, a gene suppressed by FOXM1",[2],increased expression of ATF3
same,"expression of FOXM1 stimulated target genes (FOXM1C, AURKB, CCNB1, PLK1)",[2],significantly reduced the expression
same,PK properties (half-lives and blood levels achieved),[3]; after oral administration,good PK properties
same,PK properties (half-lives and blood levels achieved),[3]; after s.c. administration,good PK properties
same,AUC,[3]; oral,35.7 µM·h
same,Cmax,[3]; oral,2380 nM
same,half-life,[3]; oral,28.8 h
same,AUC,[3]; sc,34.7 µM·h
same,Cmax,[3]; sc,1200 nM
same,half-life,[3]; sc,135 h
same,concentration for 50% suppression of proliferation relative to breast cancer cell lines,MCF10A breast cell line,five times higher
same,tumor suppression,[4]; 20 or 40 mg/kg doses (data not shown),only marginally effective
same,growth of human breast tumor xenografts,"[4]; DT22 tumors, NSG mice, 100 mg/kg oral gavage daily",very effectively suppressed the growth
